Measured values: patent publication US6465527B1, “Iodinated hydrocarbon pesticide” (priority 1999, dated 2002)
Like-named read-outs stand apart in the source and are kept apart here.

Assays:
[1] = tested on: Cowpea weevil, Callosobruchus maculatus (F.); experiment: Fumigant toxicity, Cowpea weevil; format: in vivo; parameters: concentration or dose not given beside the values; conditions: 30 adults
Protocol: (§1) Shown in Table 2 is the toxicity of both monoiodinated and diiodinated hydrocarbons to the German and American cockroach and the Cowpea weevil after 24 hours of exposure.

[2] = tested on: crabgrass [Digitaria sanguinalis], purple nutsedge [Cyperus rotundus], Jimson weed [Datura stramonium] and a variety of other weed species; experiment: Greenhouse herbicide test in weed-infested potted soil (Experiment 6, FIG. 6); format: in vivo; conditions: up to 20 mg per kg of soil; one week
Protocol: Illustrated in FIGS. 6 and 7 are the herbicidal properties of the present invention. In FIG. 6, 1,3-diiodopropane and 1,4-diiodobutane were added to a soil sample contained in a pot, wherein the number of weeds were counted at the end of a one week period. The top row of the “x” axis plots the amount in milligrams of iodinated hydrocarbon added per kilogram of soil. The two rows below the top row depict the number of weeds found after a week, which is also plotted on the “y” axis. […] It is inferred that greater dosages would eliminate an even greater number of weeds. FIG. 7 depicts similar results except that the weed controlled was only one variety: crabgrass. […] It is also inferred that dosages larger than 20 mg of iodinated hydrocarbons would further eliminate an even greater number of crabgrass plants.
(§2) For each chemical, an aqueous emulsion with 0.2% [w/w] of the compound was prepared and was applied to soil at rates of 2, 4, 6, 8, 10, and 12 mgs a.i./Kg soil. The treated soil was mixed and transferred to 1L capacity 10-cm diameter cylindrical pots. Pots with untreated soil [control] and with treated soil were placed on a greenhouse bench in a randomized complete block design. Each treatment was represented by 14 replications [pots], one half of which were left uncovered, and the other 7 were covered with polyethylene plastic bags [approx. 1 mil thickness] retained with a rubber around the pots. Soil samples for nematological analysis [salad bowl incubation technique] were collected 7-10 days after application of the materials. […] In covered pots, applications of the material were particularly effective resulting in 100% kill with the 10 and 12 mg rates. All dosages of C3 and C4 eliminated the nematode in covered pots. […] In a greenhouse experiment of similar design to the nematicide experiments, the C3 and C4 emulsions were applied at rates of 2-20 mgs a.i./Kg soil to a soil infested with crabgrass [Digitaria sanguinalis], purple nutsedge [Cyperus rotundus], Jimson weed [Datura stramonium] and a variety of other weed species. All pots were covered, and the number of weeds were counted 7, 14 and 30 days after application of the chemicals.

[3] = tested on: German cockroach, Blattella germanica (L.); experiment: Fumigant toxicity in sealed glass jar, German cockroach; format: in vivo; conditions: Blattella germanica, inhaled or nasal, 30-60 adult males
Protocol: (§3) As shown below, Table 1 depicts the toxicity of both monoiodinated and diiodinated hydrocarbons to both the German and the American cockroach after 1 hour of exposure.
as §1
(§4) In this experiment both the insecticidal and nematicidal properties of iodinated hydrocarbons were compared. In determining the insecticidal properties of the iodinated hydrocarbons, both American (Periplaneta americana) and German (Blattella germanica) cockroaches were used. Groups of cockroaches were confined in 0.95-liter glass jars with a small cotton ball. Exactly 50 μl of a test chemical was applied to the cotton ball and the jar was sealed. Knockdown, defined as the inability to walk in a coordinated manner, and mortality were assessed every 15 minutes for the first hour and hourly thereafter for 8 hours and again after 24 hours.

[4] = tested on: American cockroach, Periplaneta americana (L.); experiment: Fumigant toxicity in sealed glass jar, American cockroach; format: in vivo; conditions: Periplaneta americana, inhaled or nasal, 8-36 adult males
Protocol: as §3, §1, §4

Heterodera glycines = experiment: Greenhouse nematicide test, diiodinated C2-C8 hydrocarbons in infested field soil (Experiments 1 and 2); format: in vivo; conditions: rates ≧5.0 mg
Protocol: (§5) Additionally, the nematicidal properties of iodinated hydrocarbons were investigated in greenhouse experiments with field soil infested with Meloidogyne arenaria and Heterodera Glycines. Chemicals were added directly to infested solid at rates <100 mg/Kg soil. Treated soil was kept moist (approximately 60 percent field capacity) and uncovered for 7-10 days when samples were collected, and the pots were planted with ‘Brim’ soybean, Glycine max. […] 1,2-diiodoethane (C2), 1,3-diiodopropane (C3), 1,4-diiodobutane (C4), 1,5-diiodopentane (C5), 1,6-diiodohexane (C6), and […] were applied to soil rates of 2.5, 5.0, 7.5, and 10 mg/Kg soil. All rates of C2 and C8 were ineffective in reducing M. arenaria juvenile (J2) populations in preplant samples. This was also true for C2 and J2 populations of H. glycines; however, […] rates ≧5.0 mg suppressed J2 populations of H. glycines. […] H. glycines J2 numbers in final soil samples were generally inversely related to rates for C3-C8. […] Applications of C3-C6 to soil increased shoot weights in a manner directly related to dosages but only in a curvilinear pattern.
(§6) In this experiment, the nematicidal properties of various diiodinated hydrocarbons were compared. The nematicidal properties of diiodinated C2-C8 normal hydrocarbons was assessed in a greenhouse experiment with field soil infested with Meloidogyne arenaria [Ma] and Heterodera glycines [Hg]. 1,2-diiodoethane [C2], 1,3-diiodopropane [C3], 1,4-diiodobutane [C4], 1.5-diiodopentane [C5], 1,6-diiodohexane [C6] and 1,8-diiodooctane [C8] were applied to soil at rates of 2.5, 5.0, 7.5, and 10.0 mgs/kg soil. The potted soil was kept moist in a greenhouse for 10 days when preplant samples were collected for analysis, and the pots were planted with ‘Brim’ soybean [Glycine max]. After 7 weeks of growth, the plants were removed and final soil samples taken. Data was collected on weights of fresh roots and shoots, root galling by Ma, and numbers of nematodes in soil and roots. All rates of C2 and C8 were ineffective in reducing Ma juvenile [J2] populations in the preplant samples. This was also true for C2 and J2 populations of Hg; however, C8 rates ≧5.0 mg suppressed J2 populations of Hg. […] Hg J2 numbers in final soil samples were generally inversely related to rates for C3-C8. This pattern of suppression in J2 numbers was also applicable to Ma in the final soil samples but only for C3-C6. […] Applications of C3-C6 to soil increased shoot weights in a manner directly related to dosages but non-linear in pattern.

Meloidogyne arenaria [5] = experiment: as above; format: in vivo; conditions: rates ≧5.0 mg
Protocol: as §5, §6

[6] = tested on: reniform nematode [Rotylenchulus reniformis]; experiment: Greenhouse nematicide test in cotton field soil, covered and uncovered pots (Experiment 6, FIGS. 1-4); format: in vivo; conditions: for Control of the nematode in soil: covered and uncovered, all rates up to 12 mg per kg of soil
Description: FIGS. 2 and 3 illustrate the effectiveness of the diiodoethane and diiodopropane in eliminating the nematode (Rotylenchulus reniformis) from a soil sample. The “x” axis on the top row illustrates the quantity of iodinated hydrocarbon in milligrams per kilogram of soil. The next two rows below the “x” axis indicate the number of nematodes per 100 milliliters of soil, which is also indicated on the “y” axis. In FIG. 2, 1,2-diiodoethane was applied to the soil both in a covered state and an uncovered state. […] This is believed to be so because of the volatility of 1,2 diiodoethane, wherein the cover slows down the rate at which the compound evaporates into the atmosphere.
In this experiment, the pesticidal and herbicidal properties of volatile, low molecular weight, iodinated hydrocarbons were investigated. The relative nematicidal efficacy of iodomethane [C1], 1,2-diiodoethane [C2], 1,3-diiodopropane [C3] and 1,4-diiodobutane [C4] was studied in greenhouse experiments with soil from a cotton field infested with the reniform nematode [Rotylenchulus reniformis]. The chemicals were obtained from Aldrich, Milwaukee, U.S.A. Emulsifiable concentrates of the compounds were prepared by dilution in acetone containing an emulsogen.
as §2

[7] = tested on: German cockroach, Blattella germanica (L.); experiment: Fumigant toxicity in sealed glass jar, German cockroach; conditions: in vivo
[8] = tested on: American (Periplaneta americana) and German (Blattella germanica) cockroaches; experiment: Knockdown and mortality of cockroaches in sealed jar (both species); format: in vivo; conditions: 50 μl on cotton ball in sealed 0.95-liter jar; for Knockdown of cockroaches: within 1 hour after treatment
Protocol: as §4, with “sealed.” for “sealed. Knockdown, defined as the inability to walk in a coordinated manner, and mortality were assessed every 15 minutes for the first hour and hourly thereafter for 8 hours and again after 24 hours.”

[9] = tested on: cyst [Heterodera glycines]; experiment: Greenhouse nematicide test, iodinated C1-C3 hydrocarbons (Experiment 4); format: in vivo
Protocol: (§7) In this experiment, the nematicidal properties of low molecular weight iodinated hydrocarbons were investigated. The nematicidal properties of iodinated C1-C3 hydrocarbons were evaluated in greenhouse experiments with field soil infested with root-knot [Meloidogyne arenaria] and cyst [Heterodera glycines] nematodes. lodomethane, di-iodomethane, iodoethane, di-iodoethane, and 1-iodopropane were added to soil at rates of 0.1, 0.2 and 0.4 ml/kg soil.
(§8) The treated soil was kept moist for 10 days when soil samples were taken for nematode analysis and ‘Brim’ soybean [Glycine max] planted. Soybeans were allowed to grow for 8 weeks and then were removed from the soil to determine plant growth, root-knot indices and the number of galls generated by M arenaria. […] All compounds except 1-iodopropane increased fresh shoot weight when applied at ≧0.1 ml/kg soil.

[10] = tested on: Paratrichodorus christiei; experiment: Greenhouse nematicide test, iodomethane vs ethylene diiodide (Experiment 5); format: in vivo
Protocol: (§9) In this experiment, the nematotoxic properties of ethylene diiodide were compared to that of methyl iodide. The nematicidal efficacies of iodomethane [IM] and ethylene diiodide [EDI] were compared in a greenhouse experiment using field soil infested with Meloidogyne arenaria, Pratylenchus brachyurus, and Paratrichodorus christiei.
(§10) Each compound was added to soil at rates of 100, 200, 300 and 400 mg s/kg of soil. The soil was potted and kept moist for two weeks when it was planted with ‘Brim’ soybean after taking samples for nematological analyses. After eight weeks of growth, the plants were removed from the pots and soil samples taken. Data was collected on weights of fresh roots and shoots, general appearance of roots [root condition index] and root gall formation by M. arenaria. All EDI rates eliminated M. arenaria juveniles [J2] and populations of the other nematodes in the preplant samples; IM reduced J2 numbers by 50-70%, eliminated P. christiei with the 400 mg rate, but had no effect on P. brachyurus. […] The general appearance of roots was improved by EDI at rates ≦300 mg, but MI had no effect on the variable. […] M. arenaria J2 populations in roots were reduced by 60-70% by MI treatments, but the compound had no effect on root populations of P. brachyurus. MI had no effect on J2 populations in the final soil samples, although it suppressed P. christiei, by 50-70%.

Meloidogyne arenaria [11] = experiment: as above; format: in vivo
Protocol: as §9, §10

Pratylenchus brachyurus = experiment: as above; format: in vivo
Protocol: as §9, §10

[12] = tested on: root-knot [Meloidogyne arenaria]; experiment: Greenhouse nematicide test, iodinated C1-C3 hydrocarbons (Experiment 4); format: in vivo
Protocol: as §7, §8

'Brim' soybean = experiment: Soybean growth and root condition in treated soil (Experiment 5); format: in vivo; conditions: rates 100-400 mg/kg
Protocol: as §9, §10

[13] = 1 h exposure, read-out: % Mortality after 1 h exposure, German cockroach
[14] = 24 h exposure, read-out: % Mortality after 24 h exposure, German cockroach
[15] = 1 h exposure, read-out: % Mortality after 1 h exposure, American cockroach
[16] = 24 h exposure, read-out: % Mortality after 24 h exposure, American cockroach

## ICCCCI [1,4-diiodobutane]
[1]
  % Mortality after 24 h exposure, Cowpea weevil: 47%
[2]
  Number of weeds found in the pots as the dosage is increased (FIG. 6): steady decline
[3]; [13]
  mortality at 50 µL/jar: 0%
[3]; [14]
  mortality at 50 µL/jar: 70%
[4]; [15]
  mortality at 50 µL/jar: 0%
[4]; [16]
  mortality at 50 µL/jar: 33%
Heterodera glycines
  H. glycines J2 populations in preplant samples: virtually eliminated
Meloidogyne arenaria [5]
  M. arenaria J2 populations in preplant samples: virtually eliminated
[6]; covered pots, all dosages (2-12 mgs a.i./Kg soil)
  Nematode in soil, covered pots: eliminated
[6]; uncovered and covered state
  Dose that eliminates the nematodes: about 10 mg per kg of soil
[6]; uncovered pots, 3 highest rates
  Mortality of the nematode: 100%
[7]
  Repellency to German cockroaches: repellent

## ICI [diiodomethane]
[8]
  Time to 100 percent mortality of cockroaches: ≤ 4 h
  Knockdown of cockroaches: ≈ 40%
[1]
  % Mortality after 24 h exposure, Cowpea weevil: 100%
[9]; 10 days after application, all dosages (0.1, 0.2, 0.4 ml/kg soil)
  H. glycines J2 populations in soil: eliminated
[3]; [13]
  mortality at 50 µL/jar: 40%
[3]; [14]
  mortality at 50 µL/jar: 100%
[4]; [15]
  mortality at 50 µL/jar: 39%
[4]; [16]
  mortality at 50 µL/jar: 100%
[7]
  Repellency to German cockroaches: repellent

## CI [iodomethane, reference compound]
[8]
  Knockdown of cockroaches: 100%
[1]
  % Mortality after 24 h exposure, Cowpea weevil: 100%
[10]; 400 mg rate
  P. christiei populations in preplant samples: eliminated
[10]; final soil samples
  Suppression of P. christiei in final soil samples: 50-70%
Meloidogyne arenaria [11]; after eight weeks of growth
  Reduction of M. arenaria J2 populations in roots: 60-70%
Meloidogyne arenaria [11]; final soil samples
  J2 populations in the final soil samples: no effect
Meloidogyne arenaria [11]; rates 100-400 mg/kg of soil
  Reduction of M. arenaria J2 numbers in preplant samples: 50-70%
Meloidogyne arenaria [11]; soybean after eight weeks
  Galls in roots of plants from treated soil (M. arenaria): significant numbers
Pratylenchus brachyurus; after eight weeks of growth
  Root populations of P. brachyurus: no effect
Pratylenchus brachyurus; rates 100-400 mg/kg of soil
  P. brachyurus populations in preplant samples: no effect
[9]; 0.4 ml rate
  H. glycines J2 populations in soil: reduced
[9]; rates lower than 0.4 ml
  H. glycines J2 populations in soil: ineffective
[12]; 0.4 ml rate
  Root-knot nematode juveniles in soil: eliminated
[12]; applied at ≧0.2 ml/kg soil
  Gall formation by M. arenaria: Significant suppression
[12]; rates lower than 0.4 ml
  Root-knot nematode juveniles in soil: ineffective
'Brim' soybean
  General appearance of roots [root condition index]: no effect
[3]; [13]
  mortality at 50 µL/jar: 100%
[3]; [14]
  mortality at 50 µL/jar: 100%
[4]; [15]
  mortality at 50 µL/jar: 100%
[4]; [16]
  mortality at 50 µL/jar: 100%
[6]; listed as C1
  Control of the nematode in soil: failed to control
[6]; listed as methyl iodide
  Control of the nematode in soil: ineffective
